Reference: ChEMBL document CHEMBL3045909, “Synthesis and antitumor studies of novel benzopyrano-1,2,3-selenadiazole and spiro[benzopyrano]-1,3,4-thiadiazoline derivatives” (Med Chem Res, 2013)
Calls of active or inactive are those of the source. The rule behind the calls is not given here.

Tests used:
MCF7 = assay: Cytotoxicity against Homo sapiens (human) MCF7 cells assessed as inhibition of cell survival after 96 hr; format: functional, cell-based; settings: MCF7, 96 h
HepG2 = assay: Cytotoxicity against Homo sapiens (human) HepG2 cells assessed as inhibition of cell survival after 96 hr; format: functional, cell-based; settings: HepG2, 96 h
Vero = assay: Cytotoxicity against Chlorocebus aethiops (African green monkey) Vero cells assessed as inhibition of cell survival after 96 hr; format: functional, cell-based; settings: Chlorocebus sabaeus
WI-38 = assay: Cytotoxicity against Homo sapiens (human) WI38 cells assessed as inhibition of cell survival after 96 hr; format: functional, cell-based; settings: WI-38, 96 h
Ehrlich [1] = assay: Antitumor activity against Ehrlich ascites carcinoma cells xenografted in Swiss albino Mus musculus (mouse) assessed as decrease in tumour size at 50 mg/kg, ip qd for 9 days administered at 24 hr after tumour cell inoculation; format: functional, organism-based; set-up: dose 50 mg/kg
Ehrlich [2] = assay: Antitumor activity against Ehrlich ascites carcinoma cells xenografted in Swiss albino Mus musculus (mouse) assessed as decrease in tumour size at 20 mg/kg, ip qd for 9 days administered at 24 hr after tumour cell inoculation; format: functional, organism-based; set-up: dose 20 mg/kg
Mus musculus [3] = assay: Neurotoxicity in Ehrlich ascites carcinoma xenografted Swiss albino Mus musculus (mouse) assessed as effect on tremor, twitch, jumping, drowsy at >500 mg/kg, ip qd for 9 days administered at 24 hr after tumour cell inoculation; format: toxicity, organism-based; settings: in vivo
Ehrlich [4] = assay: Antitumor activity against Ehrlich ascites carcinoma cells xenografted in Swiss albino Mus musculus (mouse) assessed as decrease in abdominal ascites at 20 mg/kg, ip qd for 9 days administered at 24 hr after tumour cell inoculation; format: functional, organism-based; set-up: dose 20 mg/kg
Mus musculus [5] = assay: Increase in hematocrit content in Ehrlich ascites carcinoma xenografted Swiss albino Mus musculus (mouse) blood at 20 mg/kg, ip qd for 9 days administered at 24 hr after tumour cell inoculation measured on day 14 post-tumor cell implantation (reference value: 35.50%); format: functional; settings: route intraperitoneal
[6] = Antitumor activity against Ehrlich ascites carcinoma cells xenografted in Swiss albino Mus musculus (mouse) assessed as increase in lifespan at 20 mg/kg, ip qd for 9 days administered at 24 hr after tumour cell inoculation; format: functional; settings: route intraperitoneal
Ehrlich [7] = assay: Antitumor activity against Ehrlich ascites carcinoma cells xenografted in Swiss albino Mus musculus (mouse) assessed as decrease in abdominal ascites at 50 mg/kg, ip qd for 9 days administered at 24 hr after tumour cell inoculation; format: functional, organism-based; set-up: dose 50 mg/kg
[8] = Antitumor activity against Ehrlich ascites carcinoma cells xenografted in Swiss albino Mus musculus (mouse) assessed as carcinoma cell viability at 20 mg/kg, ip qd for 5 days administered at 24 hr after tumour cell inoculation by trypan blue assay (reference value: 220x10^6/ml); format: functional; settings: route intraperitoneal
Mus musculus [9] = assay: Acute toxicity in Ehrlich ascites carcinoma xenografted Swiss albino Mus musculus (mouse) assessed as decrease in locomotor activity at >500 mg/kg, ip qd for 9 days administered at 24 hr after tumour cell inoculation; format: organism-based; settings: in vivo
[10] = Antitumor activity against Ehrlich ascites carcinoma cells xenografted in Swiss albino Mus musculus (mouse) assessed as mean survival time at 20 mg/kg, ip qd for 9 days administered at 24 hr after tumour cell inoculation (reference value: 9.10/day); format: functional; settings: route intraperitoneal
[11] = Acute toxicity in ip dosed Ehrlich ascites carcinoma xenografted Swiss albino Mus musculus (mouse) assessed as mortality administered once a day for 9 days at 24 hr after tumour cell inoculation; format: organism-based; settings: in vivo
Mus musculus [12] = assay: Increase in hemoglobin content in Ehrlich ascites carcinoma xenografted Swiss albino Mus musculus (mouse) blood at 20 mg/kg, ip qd for 9 days administered at 24 hr after tumour cell inoculation measured on day 14 post-tumor cell implantation (reference value: 8.70 g/dl); format: functional; settings: route intraperitoneal
[13] = Antitumor activity against Ehrlich ascites carcinoma cells xenografted in Swiss albino Mus musculus (mouse) assessed as increase in lifespan at 50 mg/kg, ip qd for 9 days administered at 24 hr after tumour cell inoculation; format: functional; settings: route intraperitoneal
Mus musculus [14] = assay: Increase in hemoglobin content in Ehrlich ascites carcinoma xenografted Swiss albino Mus musculus (mouse) blood at 50 mg/kg, ip qd for 9 days administered at 24 hr after tumour cell inoculation measured on day 14 post-tumor cell implantation (reference value: 8.70 g/dl); format: functional; settings: route intraperitoneal
Mus musculus [15] = assay: Increase in hematocrit content in Ehrlich ascites carcinoma xenografted Swiss albino Mus musculus (mouse) blood at 50 mg/kg, ip qd for 9 days administered at 24 hr after tumour cell inoculation measured on day 14 post-tumor cell implantation (reference value: 35.50%); format: functional; settings: route intraperitoneal
[16] = Antitumor activity against Ehrlich ascites carcinoma cells xenografted in Swiss albino Mus musculus (mouse) assessed as carcinoma cell viability at 50 mg/kg, ip qd for 5 days administered at 24 hr after tumour cell inoculation by trypan blue assay (reference value: 220x10^6/ml); format: functional; settings: route intraperitoneal
[17] = Antitumor activity against Ehrlich ascites carcinoma cells xenografted in Swiss albino Mus musculus (mouse) assessed as mean survival time at 50 mg/kg, ip qd for 9 days administered at 24 hr after tumour cell inoculation (reference value: 9.10/day); format: functional; settings: route intraperitoneal

SMILES | IC50 (MCF7) | IC50 (HepG2) | IC50 (Vero) | IC50 (WI-38) | other results
CCC1(C)C/C(=N\NC(N)=S)c2cc(O)ccc2O1 (stereo not drawn) | 60 µM | 60 µM | 60 µM | 60 µM | –
O=C1CC2(CCCC2)Oc2ccc(O)cc21 | 640 µM | 460 µM | 740 µM | 510 µM | –
Oc1ccc2c(c1)-c1nn[se]c1C1(CCCCCC1)O2 | 1490 µM | 1150 µM | 1190 µM | 1610 µM | –
CC(=O)NC1=NN(C(C)=O)C2(CC3(CCCC3)Oc3ccc(OC(C)=O)cc32)S1 (stereo not drawn) | 50 µM | 50 µM | 40 µM | 40 µM | –
NC(=O)N/N=C1\CC2(CCCC2)Oc2ccc(O)cc21 | 110 µM | 100 µM | 90 µM | 100 µM | –
NC(=O)N/N=C1\CC2(CCCCC2)Oc2ccc(O)cc21 | 70 µM | 150 µM | 80 µM | 160 µM | –
CC1(C)C/C(=N\NC(N)=O)c2cc(O)ccc2O1 | 150 µM | 120 µM | 170 µM | 140 µM | –
CC1(C)CC(=O)c2cc(O)ccc2O1 | 410 µM | 480 µM | 420 µM | 430 µM | –
CC1(C)Oc2ccc(O)cc2-c2nn[se]c21 | 60 µM | 60 µM | 50 µM | 70 µM | –
CCC1(C)CC2(SC(NC(C)=O)=NN2C(C)=O)c2cc(OC(C)=O)ccc2O1 (stereo not drawn) | 1010 µM | 620 µM | 630 µM | 840 µM | –
Oc1ccc2c(c1)-c1nn[se]c1C1(CCCCC1)O2 | 120 µM | 90 µM | 100 µM | 110 µM | –
Oc1ccc2c(c1)-c1nn[se]c1C1(CCCC1)O2 | 60 µM | 60 µM | 60 µM | 70 µM | –
CC(=O)NC1=NN(C(C)=O)C2(CC3(CCCCC3)Oc3ccc(OC(C)=O)cc32)S1 (stereo not drawn) | 80 µM | 70 µM | 80 µM | 80 µM | –
CC(=O)NC1=NN(C(C)=O)C2(CC(C)(C)Oc3ccc(OC(C)=O)cc32)S1 (stereo not drawn) | 30 µM | 30 µM | 30 µM | 30 µM | inhibition (Ehrlich [1]): Active; inhibition (Ehrlich [2]): Active; Activity (Mus musculus [3]): Non-toxic; inhibition (Ehrlich [4]): Active; Activity (Mus musculus [5]): 45%; Activity [6]: 98.9%; inhibition (Ehrlich [7]): Active; Activity [8]: 110 ×10⁶ /ml; Activity (Mus musculus [9]): Toxic; MST [10]: 18.1 days; LD50 at 9 days [11]: 248 mg/kg; Activity (Mus musculus [12]): 11.9 g/dL
NC(=O)N/N=C1\CC2(CCCCCC2)Oc2ccc(O)cc21 | 1120 µM | 1120 µM | 1130 µM | 1120 µM | –
CCC1(C)CC(=O)c2cc(O)ccc2O1 (stereo not drawn) | 150 µM | 150 µM | 150 µM | 150 µM | –
NC(=S)N/N=C1\CC2(CCCCCC2)Oc2ccc(O)cc21 | 1620 µM | 1440 µM | 1440 µM | 1510 µM | –
O=C1CC2(CCCCC2)Oc2ccc(O)cc21 | 90 µM | 190 µM | 90 µM | 210 µM | –
NC(=S)N/N=C1\CC2(CCCCC2)Oc2ccc(O)cc21 | 1340 µM | 820 µM | 840 µM | 1120 µM | –
O=C1CC2(CCCCCC2)Oc2ccc(O)cc21 | 1510 µM | 1450 µM | 1320 µM | 1430 µM | –
NC(=S)N/N=C1\CC2(CCCC2)Oc2ccc(O)cc21 | 100 µM | 100 µM | 90 µM | 100 µM | –
CCC1(C)C/C(=N\NC(N)=O)c2cc(O)ccc2O1 (stereo not drawn) | 70 µM | 60 µM | 50 µM | 70 µM | –
O=c1[nH]cc(F)c(=O)[nH]1 [FLUOROURACIL] | 20 µM | 70 µM | – | 20 µM | Activity [13]: 72.53%; Activity (Mus musculus [14]): 10 g/dL; Activity (Mus musculus [15]): 42.3%; Activity [16]: 123 ×10⁶ /ml; MST [17]: 15.7 days
CC1(C)C/C(=N\NC(N)=S)c2cc(O)ccc2O1 | 140 µM | 140 µM | 150 µM | 120 µM | –
CCC1(C)Oc2ccc(O)cc2-c2nn[se]c21 (stereo not drawn) | 60 µM | 50 µM | 60 µM | 50 µM | inhibition (Ehrlich [1]): Active; inhibition (Ehrlich [2]): Active; Activity (Mus musculus [3]): Non-toxic; inhibition (Ehrlich [4]): Active; Activity (Mus musculus [5]): 43.7%; Activity [6]: 73.63%; inhibition (Ehrlich [7]): Active; Activity [8]: 107 ×10⁶ /ml; Activity (Mus musculus [9]): Toxic; MST [10]: 15.8 days; LD50 at 9 days [11]: 247 mg/kg; Activity (Mus musculus [12]): 10.5 g/dL
